Measurements as given in PubChem BioAssay (NCI).
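Each compound was tested at five concentrations against cells in 96-well plates for 48 hours. TGI denotes the concentration required for complete inhibition of growth.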

Experiments:
Test in all cases: growth of human tumour cells (NCI), 48 h
[1] = system: MDA-MB-231 breast
[2] = system: HOP-92 NSCLC
[3] = system: HCC-2998 colon
[4] = system: LOX IMVI melanoma
[5] = system: NCI/ADR-RES ovarian
[6] = system: UO-31 renal
[7] = system: OVCAR-8 ovarian
[8] = system: SK-OV-3 ovarian
[9] = system: HCT-116 colon
[10] = system: SK-MEL-28 melanoma
[11] = system: KM12 colon
[12] = system: HCT-15 colon
[13] = system: 786-0 renal
[14] = system: NCI-H460 lung
[15] = system: BT-549 breast
[16] = system: PC-3 prostate

O=C1/C(=C/c2ccc(O)c(O)c2)CC/C1=C\c1ccc(O)c(O)c1 was tested, and the TGI [1] was over 100 µM, the TGI [2] was 76.1 µM and the TGI [3] was over 100 µM. It also gave a TGI [4] of over 56.1 µM, a TGI [5] of over 100 µM and a TGI [6] of 7.31 µM. It also gave a TGI [7] of over 87.2 µM, a TGI [8] of over 60.2 µM and a TGI [9] of over 47.8 µM. It also gave a TGI [10] of over 100 µM, a TGI [11] of over 100 µM and a TGI [12] of over 100 µM. For the same compound, the TGI [13] was 38.2 µM, the TGI [14] was over 100 µM and the TGI [15] was 28.9 µM. For the same compound, the TGI [16] was over 100 µM.

CS(=O)(=O)O[C@H]1[C@H](O)c2ccccc2[C@@H]1N=[N+]=[N-] showed a TGI [1] of over 100 µM, a TGI [2] of over 100 µM and a TGI [3] of over 100 µM. The TGI [4] was over 100 µM, the TGI [5] was over 100 µM and the TGI [6] was over 100 µM. For the same compound, the TGI [7] was over 100 µM, the TGI [8] was over 100 µM and the TGI [9] was over 100 µM. It also gave a TGI [10] of over 100 µM, a TGI [11] of over 100 µM and a TGI [12] of over 100 µM. The TGI [13] was over 100 µM, the TGI [14] was over 100 µM and the TGI [15] was over 100 µM. For the same compound, the TGI [16] was over 100 µM.

Work on Cc1ccc(C(=O)N/N=C(\N=Nc2ccccc2Cl)c2ccc(N(C)C)cc2)cc1 yielded a TGI [1] of over 100 µM, a TGI [2] of over 100 µM and a TGI [3] of over 100 µM. For the same compound, the TGI [4] was over 100 µM, the TGI [5] was over 100 µM and the TGI [6] was over 100 µM. The TGI [7] was over 100 µM, the TGI [8] was over 100 µM and the TGI [9] was over 100 µM. For the same compound, the TGI [10] was over 100 µM, the TGI [11] was over 100 µM and the TGI [12] was over 100 µM. For the same compound, the TGI [13] was over 100 µM, the TGI [14] was over 100 µM and the TGI [15] was 97.1 µM. It also gave a TGI [16] of over 100 µM.

COc1cc(C2OC[C@@H]3C(=O)OC[C@H]23)cc(O)c1OC (stereo partly specified) was tested, and the TGI [1] was over 100 µM, the TGI [2] was over 100 µM and the TGI [3] was over 100 µM. The TGI [4] was over 100 µM, the TGI [5] was over 100 µM and the TGI [6] was over 100 µM. For the same compound, the TGI [7] was over 100 µM, the TGI [8] was over 100 µM and the TGI [9] was over 100 µM. The TGI [11] was over 100 µM, the TGI [12] was over 100 µM and the TGI [13] was over 100 µM. The TGI [14] was over 100 µM, the TGI [15] was over 100 µM and the TGI [16] was over 100 µM.

C(#CC1(Nc2ccccc2)CCN(Cc2ccccc2)CC1)C1(Nc2ccccc2)CCN(Cc2ccccc2)CC1 showed a TGI [1] of 42.8 µM, a TGI [2] of 33.9 µM and a TGI [3] of over 100 µM. The TGI [4] was 38.7 µM, the TGI [5] was over 100 µM and the TGI [6] was over 84.7 µM. For the same compound, the TGI [7] was 53.5 µM, the TGI [8] was 13.1 µM and the TGI [9] was 54.2 µM. It also gave a TGI [10] of 26.7 µM, a TGI [11] of over 56.2 µM and a TGI [12] of over 46.4 µM. It also gave a TGI [13] of 39.5 µM, a TGI [14] of over 46.4 µM and a TGI [15] of over 100 µM. For the same compound, the TGI [16] was 36.5 µM.

COC(=O)[C@]12CSC[C@H]1C[C@H](c1cccc3ccccc13)N2 gave a TGI [1] of over 100 µM, a TGI [2] of over 100 µM and a TGI [3] of over 100 µM. For the same compound, the TGI [4] was over 100 µM, the TGI [5] was over 100 µM and the TGI [6] was over 100 µM. For the same compound, the TGI [7] was over 100 µM, the TGI [8] was over 100 µM and the TGI [9] was over 100 µM. For the same compound, the TGI [10] was over 100 µM, the TGI [11] was over 100 µM and the TGI [12] was over 100 µM. It also gave a TGI [13] of over 100 µM, a TGI [14] of over 100 µM and a TGI [15] of over 100 µM. The TGI [16] was over 100 µM.

Work on CCCCCCCCCCOCCOCCOCCOCCCCC(O)CCCCCCCC1=C[C@H](C)OC1=O (stereo partly specified) yielded a TGI [1] of 30.8 µM, a TGI [2] of 29.6 µM and a TGI [3] of 27 µM. The TGI [4] was 28 µM, the TGI [5] was 41 µM and the TGI [6] was 18.3 µM. It also gave a TGI [7] of 33.6 µM, a TGI [8] of 41.4 µM and a TGI [9] of 37.7 µM. For the same compound, the TGI [10] was 25.3 µM, the TGI [11] was 23.9 µM and the TGI [12] was 23.9 µM. It also gave a TGI [13] of 45.5 µM, a TGI [14] of 22 µM and a TGI [15] of 16.1 µM. The TGI [16] was 20.9 µM.
